From the NIST ThermoML archive (doi:10.1021/acs.jced.7b00347)

Experiment: mn = molality of the nth substance listed, in mol/kg
Conditions: for surface tension liquid-gas: Ring tensiometer; for electrical conductivity: 100 kPa, Liquid, Alternating current cell with electrodes

CCCCCCCCCCCC[NH+](CCO)CC(C)O.[Cl-] (stereo unspecified) + O
Conditions | electrical conductivity [S/m] | surface tension liquid-gas [mN/m]
293.15 K, m1 = 1.54e-05 | 0.00031 | –
293.15 K, m1 = 1.543e-05 | – | 59.21
293.15 K, m1 = 3.087e-05 | – | 52.72
293.15 K, m1 = 3.859e-05 | – | 50.31
293.15 K, m1 = 3.95e-05 | 0.00039 | –
293.15 K, m1 = 6.35e-05 | 0.00047 | –
293.15 K, m1 = 7.717e-05 | – | 44.02
293.15 K, m1 = 8.75e-05 | 0.000551 | –
293.15 K, m1 = 0.0001116 | 0.000631 | –
293.15 K, m1 = 0.0001356 | 0.000711 | –
293.15 K, m1 = 0.0001544 | – | 37.72
293.15 K, m1 = 0.0001596 | 0.000791 | –
293.15 K, m1 = 0.0001837 | 0.000872 | –
293.15 K, m1 = 0.0002077 | 0.000952 | –
293.15 K, m1 = 0.0002315 | – | 34.11
293.15 K, m1 = 0.0002317 | 0.00103 | –
293.15 K, m1 = 0.0002558 | 0.00111 | –
293.15 K, m1 = 0.0002798 | 0.00119 | –
293.15 K, m1 = 0.0003038 | 0.00127 | –
293.15 K, m1 = 0.0003087 | – | 31.52
293.15 K, m1 = 0.0003279 | 0.00135 | –
293.15 K, m1 = 0.0003519 | 0.00144 | 30.47
293.15 K, m1 = 0.0003819 | 0.00148 | –
293.15 K, m1 = 0.0004119 | 0.00153 | –
293.15 K, m1 = 0.0004419 | 0.00159 | –
293.15 K, m1 = 0.0004719 | 0.00163 | –
293.15 K, m1 = 0.0005018 | 0.00169 | –
293.15 K, m1 = 0.0005318 | 0.00174 | –
293.15 K, m1 = 0.0005618 | 0.00179 | –
293.15 K, m1 = 0.0005918 | 0.00184 | –
293.15 K, m1 = 0.0006218 | 0.00189 | –
293.15 K, m1 = 0.0006518 | 0.00194 | –
293.15 K, m1 = 0.0006818 | 0.00199 | –
293.15 K, m1 = 0.0007118 | 0.00204 | –
293.15 K, m1 = 0.0007417 | 0.00209 | –
293.15 K, m1 = 0.0007717 | 0.00214 | 30.03
293.15 K, m1 = 0.001543 | – | 29.53
293.15 K, m1 = 0.002315 | – | 29.53
298.15 K, m1 = 1.54e-05 | 0.00041 | –
298.15 K, m1 = 1.543e-05 | – | 54.03
298.15 K, m1 = 3.087e-05 | – | 48.02
298.15 K, m1 = 3.51e-05 | 0.000488 | –
298.15 K, m1 = 3.859e-05 | – | 45.91
298.15 K, m1 = 5.47e-05 | 0.000565 | –
298.15 K, m1 = 7.43e-05 | 0.000643 | –
298.15 K, m1 = 7.717e-05 | – | 40
298.15 K, m1 = 9.39e-05 | 0.000721 | –
298.15 K, m1 = 0.0001136 | 0.000798 | –
298.15 K, m1 = 0.0001332 | 0.000876 | –
298.15 K, m1 = 0.0001528 | 0.000954 | –
298.15 K, m1 = 0.0001544 | – | 34.51
298.15 K, m1 = 0.0001724 | 0.00103 | –
298.15 K, m1 = 0.000192 | 0.00111 | –
298.15 K, m1 = 0.0002117 | 0.00119 | –
298.15 K, m1 = 0.0002313 | 0.00127 | –
298.15 K, m1 = 0.0002315 | – | 31.42
298.15 K, m1 = 0.0002509 | 0.00134 | –
298.15 K, m1 = 0.0002705 | 0.00142 | –
298.15 K, m1 = 0.0002902 | 0.0015 | –
298.15 K, m1 = 0.0002932 | – | 29.91
298.15 K, m1 = 0.0003155 | 0.00156 | –
298.15 K, m1 = 0.0003409 | 0.00161 | –
298.15 K, m1 = 0.0003662 | 0.00167 | –
298.15 K, m1 = 0.0003915 | 0.00173 | –
298.15 K, m1 = 0.0004169 | 0.00179 | –
298.15 K, m1 = 0.0004422 | 0.00185 | –
298.15 K, m1 = 0.0004676 | 0.0019 | –
298.15 K, m1 = 0.0004929 | 0.00196 | –
298.15 K, m1 = 0.0005183 | 0.00202 | –
298.15 K, m1 = 0.0005436 | 0.00208 | –
298.15 K, m1 = 0.000569 | 0.00213 | –
298.15 K, m1 = 0.0005943 | 0.00219 | –
298.15 K, m1 = 0.0006197 | 0.00225 | –
298.15 K, m1 = 0.000645 | 0.00231 | –
298.15 K, m1 = 0.0006703 | 0.00236 | –
298.15 K, m1 = 0.0006957 | 0.00242 | –
298.15 K, m1 = 0.000721 | 0.00248 | –
298.15 K, m1 = 0.0007464 | 0.00254 | –
298.15 K, m1 = 0.0007717 | 0.0026 | 29.14
298.15 K, m1 = 0.001543 | – | 28.62
298.15 K, m1 = 0.002315 | – | 28.22
298.15 K, m1 = 0.003087 | – | 28.01
303.15 K, m1 = 1.08e-05 | – | 52.51
303.15 K, m1 = 1.54e-05 | 0.00051 | –
303.15 K, m1 = 1.543e-05 | – | 49.91
303.15 K, m1 = 3.087e-05 | – | 44.82
303.15 K, m1 = 3.44e-05 | 0.000593 | –
303.15 K, m1 = 3.859e-05 | – | 42.83
303.15 K, m1 = 5.34e-05 | 0.000676 | –
303.15 K, m1 = 7.23e-05 | 0.000759 | –
303.15 K, m1 = 7.717e-05 | – | 38
303.15 K, m1 = 9.13e-05 | 0.000841 | –
303.15 K, m1 = 0.0001102 | 0.000924 | –
303.15 K, m1 = 0.0001292 | 0.00101 | –
303.15 K, m1 = 0.0001482 | 0.00109 | –
303.15 K, m1 = 0.0001544 | – | 32.62
303.15 K, m1 = 0.0001671 | 0.00117 | –
303.15 K, m1 = 0.0001861 | 0.00126 | –
303.15 K, m1 = 0.0002051 | 0.00134 | –
303.15 K, m1 = 0.000224 | 0.00142 | –
303.15 K, m1 = 0.0002315 | – | 29.91
303.15 K, m1 = 0.000243 | 0.0015 | –
303.15 K, m1 = 0.0002619 | 0.00159 | –
303.15 K, m1 = 0.0002797 | – | 28.96
303.15 K, m1 = 0.0002809 | 0.00167 | –
303.15 K, m1 = 0.0003067 | 0.00174 | –
303.15 K, m1 = 0.0003326 | 0.00181 | –
303.15 K, m1 = 0.0003584 | 0.00188 | –
303.15 K, m1 = 0.0003842 | 0.00195 | –
303.15 K, m1 = 0.0004101 | 0.00202 | –
303.15 K, m1 = 0.0004359 | 0.00209 | –
303.15 K, m1 = 0.0004617 | 0.00216 | –
303.15 K, m1 = 0.0004876 | 0.00223 | –
303.15 K, m1 = 0.0005134 | 0.0023 | –
303.15 K, m1 = 0.0005392 | 0.00237 | –
303.15 K, m1 = 0.0005651 | 0.00244 | –
303.15 K, m1 = 0.0005909 | 0.00251 | –
303.15 K, m1 = 0.0006167 | 0.00258 | –
303.15 K, m1 = 0.0006426 | 0.00265 | –
303.15 K, m1 = 0.0006684 | 0.00272 | –
303.15 K, m1 = 0.0006942 | 0.00279 | –
303.15 K, m1 = 0.0007201 | 0.00285 | –
303.15 K, m1 = 0.0007459 | 0.00293 | –
303.15 K, m1 = 0.0007717 | 0.003 | 28.21
303.15 K, m1 = 0.001543 | – | 27.64
303.15 K, m1 = 0.002315 | – | 27.64
303.15 K, m1 = 0.003087 | – | 27.64
308.15 K, m1 = 8.952e-06 | – | 50.44
308.15 K, m1 = 1.54e-05 | 0.00061 | –
308.15 K, m1 = 1.543e-05 | – | 46.51
308.15 K, m1 = 3.087e-05 | – | 41.89
308.15 K, m1 = 3.51e-05 | 0.000702 | –
308.15 K, m1 = 3.859e-05 | – | 40.38
308.15 K, m1 = 5.47e-05 | 0.000794 | –
308.15 K, m1 = 7.43e-05 | 0.000886 | –
308.15 K, m1 = 7.717e-05 | – | 35.57
308.15 K, m1 = 9.39e-05 | 0.000978 | –
308.15 K, m1 = 0.0001136 | 0.00107 | –
308.15 K, m1 = 0.0001332 | 0.00116 | –
308.15 K, m1 = 0.0001528 | 0.00125 | –
308.15 K, m1 = 0.0001544 | – | 31.04
308.15 K, m1 = 0.0001724 | 0.00135 | –
308.15 K, m1 = 0.000192 | 0.00144 | –
308.15 K, m1 = 0.0002117 | 0.00153 | –
308.15 K, m1 = 0.0002313 | 0.00162 | –
308.15 K, m1 = 0.0002509 | 0.00171 | –
308.15 K, m1 = 0.0002624 | – | 27.74
308.15 K, m1 = 0.0002705 | 0.00181 | –
308.15 K, m1 = 0.0002902 | 0.0019 | –
308.15 K, m1 = 0.0003087 | – | 27.74
308.15 K, m1 = 0.0003169 | 0.00198 | –
308.15 K, m1 = 0.0003437 | 0.00207 | –
308.15 K, m1 = 0.0003704 | 0.00215 | –
308.15 K, m1 = 0.0003972 | 0.00224 | –
308.15 K, m1 = 0.0004239 | 0.00232 | –
308.15 K, m1 = 0.0004507 | 0.00241 | –
308.15 K, m1 = 0.0004774 | 0.00249 | –
308.15 K, m1 = 0.0005042 | 0.00258 | –
308.15 K, m1 = 0.0005309 | 0.00266 | –
308.15 K, m1 = 0.0005577 | 0.00275 | –
308.15 K, m1 = 0.0005845 | 0.00283 | –
308.15 K, m1 = 0.0006112 | 0.00291 | –
308.15 K, m1 = 0.000638 | 0.003 | –
308.15 K, m1 = 0.0006647 | 0.00308 | –
308.15 K, m1 = 0.0006915 | 0.00317 | –
308.15 K, m1 = 0.0007182 | 0.00325 | –
308.15 K, m1 = 0.000745 | 0.00334 | –
308.15 K, m1 = 0.0007717 | 0.00342 | 27.55
308.15 K, m1 = 0.001543 | – | 27.08
308.15 K, m1 = 0.002315 | – | 26.79
308.15 K, m1 = 0.003087 | – | 26.79
